Calls of active or inactive are those of the source. No rule for the calls is given here.
Test system: CCRIS mutagenicity, Ames/micronucleus/aberration tests
Assay: CCRIS mutagenicity studies

For `CC(C)CON=O`, the mutagenic call (Test System: AMES SALMONELLA TYPHIMURIUM, Strain/Indicator: TA98, Metabolic Activation: HAMSTER, LIVER, S-9, AROCLOR 1254 (5 OR 10%), Method: PREINCUBATION) was “inactive; negative”, the mutagenic call (Test System: AMES SALMONELLA TYPHIMURIUM, Strain/Indicator: TA98, Metabolic Activation: HAMSTER, LIVER, S-9, AROCLOR 1254 (30%), Method: PREINCUBATION) was “inactive; negative” and the mutagenic call (Test System: AMES SALMONELLA TYPHIMURIUM, Strain/Indicator: TA98, Metabolic Activation: HAMSTER, LIVER, S-9, AROCLOR 1254, Method: STANDARD PLATE) was “inactive; negative”. For the same compound, the mutagenic call (Test System: AMES SALMONELLA TYPHIMURIUM, Strain/Indicator: TA98, Metabolic Activation: NONE, Method: DESICCATOR) was “inactive; negative”, the mutagenic call (Test System: AMES SALMONELLA TYPHIMURIUM, Strain/Indicator: TA98, Metabolic Activation: NONE, Method: FLUCTUATION (MICROTITER)) was “inactive; negative” and the mutagenic call (Test System: AMES SALMONELLA TYPHIMURIUM, Strain/Indicator: TA98, Metabolic Activation: NONE, Method: PREINCUBATION) was “inactive; negative”. The mutagenic call (Test System: AMES SALMONELLA TYPHIMURIUM, Strain/Indicator: TA98, Metabolic Activation: NONE, Method: STANDARD PLATE) was “inactive; negative”, the mutagenic call (Test System: AMES SALMONELLA TYPHIMURIUM, Strain/Indicator: TA98, Metabolic Activation: RAT LIVER S-9, AROCLOR 1254, Method: FLUCTUATION (MICROTITER)) was “inactive; negative” and the mutagenic call (Test System: AMES SALMONELLA TYPHIMURIUM, Strain/Indicator: TA98, Metabolic Activation: RAT, LIVER, S-9, AROCLOR 1254 (5 OR 10%), Method: PREINCUBATION) was “inactive; negative”. The mutagenic call (Test System: AMES SALMONELLA TYPHIMURIUM, Strain/Indicator: TA98, Metabolic Activation: RAT, LIVER, S-9, AROCLOR 1254 (30%), Method: PREINCUBATION) was “inactive; negative”, the mutagenic call (Test System: AMES SALMONELLA TYPHIMURIUM, Strain/Indicator: TA98, Metabolic Activation: RAT, LIVER, S-9, AROCLOR 1254, Method: DESICCATOR) was “inactive; negative” and the mutagenic call (Test System: AMES SALMONELLA TYPHIMURIUM, Strain/Indicator: TA98, Metabolic Activation: RAT, LIVER, S-9, AROCLOR 1254, Method: STANDARD PLATE) was “inactive; negative”. The mutagenic call (Test System: AMES SALMONELLA TYPHIMURIUM, Strain/Indicator: TA100, Metabolic Activation: HAMSTER, LIVER, S-9, AROCLOR 1254 (10%), Method: PREINCUBATION) was “active; positive”, the mutagenic call (Test System: AMES SALMONELLA TYPHIMURIUM, Strain/Indicator: TA100, Metabolic Activation: HAMSTER, LIVER, S-9, AROCLOR 1254 (30%), Method: PREINCUBATION) was “active; positive” and the mutagenic call (Test System: AMES SALMONELLA TYPHIMURIUM, Strain/Indicator: TA100, Metabolic Activation: HAMSTER, LIVER, S-9, AROCLOR 1254, Method: STANDARD PLATE) was “active; positive”. The mutagenic call (Test System: AMES SALMONELLA TYPHIMURIUM, Strain/Indicator: TA100, Metabolic Activation: NONE, Method: PREINCUBATION) was “inactive; negative”, the mutagenic call (Test System: AMES SALMONELLA TYPHIMURIUM, Strain/Indicator: TA100, Metabolic Activation: NONE, Method: STANDARD PLATE) was “active; positive” and the mutagenic call (Test System: AMES SALMONELLA TYPHIMURIUM, Strain/Indicator: TA100, Metabolic Activation: RAT, LIVER, S-9, AROCLOR 1254 (10%), Method: PREINCUBATION) was “active; positive”. For the same compound, the mutagenic call (Test System: AMES SALMONELLA TYPHIMURIUM, Strain/Indicator: TA100, Metabolic Activation: RAT, LIVER, S-9, AROCLOR 1254 (30%), Method: PREINCUBATION) was “active; positive”, the mutagenic call (Test System: AMES SALMONELLA TYPHIMURIUM, Strain/Indicator: TA100, Metabolic Activation: RAT, LIVER, S-9, AROCLOR 1254, Method: DESICCATOR) was “active; positive” and the mutagenic call (Test System: AMES SALMONELLA TYPHIMURIUM, Strain/Indicator: TA100, Metabolic Activation: RAT, LIVER, S-9, AROCLOR 1254, Method: STANDARD PLATE) was “active; positive”. The mutagenic call (Test System: AMES SALMONELLA TYPHIMURIUM, Strain/Indicator: TA1535, Metabolic Activation: HAMSTER, LIVER, S-9, AROCLOR 1254 (10%), Method: PREINCUBATION) was “active; positive”, the mutagenic call (Test System: AMES SALMONELLA TYPHIMURIUM, Strain/Indicator: TA1535, Metabolic Activation: HAMSTER, LIVER, S-9, AROCLOR 1254 (30%), Method: PREINCUBATION) was “active; positive” and the mutagenic call (Test System: AMES SALMONELLA TYPHIMURIUM, Strain/Indicator: TA1535, Metabolic Activation: HAMSTER, LIVER, S-9, AROCLOR 1254, Method: STANDARD PLATE) was “active; positive”. The mutagenic call (Test System: AMES SALMONELLA TYPHIMURIUM, Strain/Indicator: TA1535, Metabolic Activation: NONE, Method: DESICCATOR) was “active; positive”, the mutagenic call (Test System: AMES SALMONELLA TYPHIMURIUM, Strain/Indicator: TA1535, Metabolic Activation: NONE, Method: STANDARD PLATE) was “active; positive” and the mutagenic call (Test System: AMES SALMONELLA TYPHIMURIUM, Strain/Indicator: TA1535, Metabolic Activation: RAT, LIVER, S-9, AROCLOR 1254 (10%), Method: PREINCUBATION) was “inactive; negative”. For the same compound, the mutagenic call (Test System: AMES SALMONELLA TYPHIMURIUM, Strain/Indicator: TA1535, Metabolic Activation: RAT, LIVER, S-9, AROCLOR 1254 (30%), Method: PREINCUBATION) was “active; positive”, the mutagenic call (Test System: AMES SALMONELLA TYPHIMURIUM, Strain/Indicator: TA1535, Metabolic Activation: RAT, LIVER, S-9, AROCLOR 1254, Method: DESICCATOR) was “active; positive” and the mutagenic call (Test System: AMES SALMONELLA TYPHIMURIUM, Strain/Indicator: TA1535, Metabolic Activation: RAT, LIVER, S-9, AROCLOR 1254, Method: PREINCUBATION) was “active; positive”. For the same compound, the mutagenic call (Test System: AMES SALMONELLA TYPHIMURIUM, Strain/Indicator: TA1535, Metabolic Activation: RAT, LIVER, S-9, AROCLOR 1254, Method: STANDARD PLATE) was “active; positive”, the mutagenic call (Test System: AMES SALMONELLA TYPHIMURIUM, Strain/Indicator: TA1537, Metabolic Activation: HAMSTER, LIVER, S-9, AROCLOR 1254 (10%), Method: PREINCUBATION) was “inactive; negative” and the mutagenic call (Test System: AMES SALMONELLA TYPHIMURIUM, Strain/Indicator: TA1537, Metabolic Activation: HAMSTER, LIVER, S-9, AROCLOR 1254, Method: STANDARD PLATE) was “inactive; negative”. The mutagenic call (Test System: AMES SALMONELLA TYPHIMURIUM, Strain/Indicator: TA1537, Metabolic Activation: NONE, Method: FLUCTUATION (MICROTITER)) was “inactive; negative”, the mutagenic call (Test System: AMES SALMONELLA TYPHIMURIUM, Strain/Indicator: TA1537, Metabolic Activation: NONE, Method: PREINCUBATION) was “inactive; negative” and the mutagenic call (Test System: AMES SALMONELLA TYPHIMURIUM, Strain/Indicator: TA1537, Metabolic Activation: NONE, Method: STANDARD PLATE) was “inactive; negative”. For the same compound, the mutagenic call (Test System: AMES SALMONELLA TYPHIMURIUM, Strain/Indicator: TA1537, Metabolic Activation: RAT LIVER S-9, AROCLOR 1254, Method: FLUCTUATION (MICROTITER)) was “inactive; negative”, the mutagenic call (Test System: AMES SALMONELLA TYPHIMURIUM, Strain/Indicator: TA1537, Metabolic Activation: RAT, LIVER, S-9, AROCLOR 1254 (10%), Method: PREINCUBATION) was “inactive; negative” and the mutagenic call (Test System: AMES SALMONELLA TYPHIMURIUM, Strain/Indicator: TA1537, Metabolic Activation: RAT, LIVER, S-9, AROCLOR 1254, Method: STANDARD PLATE) was “inactive; negative”. For the same compound, the mutagenic call (Test System: AMES SALMONELLA TYPHIMURIUM, Strain/Indicator: TA7001, Metabolic Activation: NONE, Method: FLUCTUATION (MICROTITER)) was “inactive; negative”, the mutagenic call (Test System: AMES SALMONELLA TYPHIMURIUM, Strain/Indicator: TA7001, Metabolic Activation: RAT LIVER S-9, AROCLOR 1254, Method: FLUCTUATION (MICROTITER)) was “inactive; negative” and the mutagenic call (Test System: AMES SALMONELLA TYPHIMURIUM, Strain/Indicator: TA7002, Metabolic Activation: NONE, Method: FLUCTUATION (MICROTITER)) was “inactive; negative”. The mutagenic call (Test System: AMES SALMONELLA TYPHIMURIUM, Strain/Indicator: TA7002, Metabolic Activation: RAT LIVER S-9, AROCLOR 1254, Method: FLUCTUATION (MICROTITER)) was “inactive; negative”, the mutagenic call (Test System: AMES SALMONELLA TYPHIMURIUM, Strain/Indicator: TA7003, Metabolic Activation: NONE, Method: FLUCTUATION (MICROTITER)) was “inactive; negative” and the mutagenic call (Test System: AMES SALMONELLA TYPHIMURIUM, Strain/Indicator: TA7003, Metabolic Activation: RAT LIVER S-9, AROCLOR 1254, Method: FLUCTUATION (MICROTITER)) was “inactive; negative”. The mutagenic call (Test System: AMES SALMONELLA TYPHIMURIUM, Strain/Indicator: TA7004, Metabolic Activation: NONE, Method: FLUCTUATION (MICROTITER)) was “inactive; negative”, the mutagenic call (Test System: AMES SALMONELLA TYPHIMURIUM, Strain/Indicator: TA7004, Metabolic Activation: RAT LIVER S-9, AROCLOR 1254, Method: FLUCTUATION (MICROTITER)) was “inactive; negative” and the mutagenic call (Test System: AMES SALMONELLA TYPHIMURIUM, Strain/Indicator: TA7005, Metabolic Activation: NONE, Method: FLUCTUATION (MICROTITER)) was “inactive; negative”. The mutagenic call (Test System: AMES SALMONELLA TYPHIMURIUM, Strain/Indicator: TA7005, Metabolic Activation: RAT LIVER S-9, AROCLOR 1254, Method: FLUCTUATION (MICROTITER)) was “inactive; negative”, the mutagenic call (Test System: AMES SALMONELLA TYPHIMURIUM, Strain/Indicator: TA7006, Metabolic Activation: NONE, Method: FLUCTUATION (MICROTITER)) was “inactive; negative” and the mutagenic call (Test System: AMES SALMONELLA TYPHIMURIUM, Strain/Indicator: TA7006, Metabolic Activation: RAT LIVER S-9, AROCLOR 1254, Method: FLUCTUATION (MICROTITER)) was “inactive; negative”. The mutagenic call (Test System: MOUSE LYMPHOMA, Strain/Indicator: L5178Y (TK+/TK-), Metabolic Activation: NONE, Method: SUSPENSION/PLATE) was “active; positive”, the mutagenic call (Test System: MOUSE LYMPHOMA, Strain/Indicator: L5178Y (TK+/TK-), Metabolic Activation: RAT, LIVER, S-9, AROCLOR 1254, Method: SUSPENSION/PLATE) was “active; positive” and the mutagenic call (Test System: Mouse lymphoma, Strain/Indicator: L5178Y (tk+/tk-), Metabolic Activation: Rat, Liver, S-9, Aroclor 1254, Method: Suspension/plate) was “active; positive”.

From PubChem BioAssay AID1259407 (Chemical Carcinogenesis Research Information System (CCRIS), 2018)
